Data: publication PMC9307983 (Acta Naturae, 2022)

Tests used:
MGL, Ser339Ala = MGL, Ser339Ala (Citrobacter freundii, UniProt Q84AR1, S339A); test: biochemical; assay type: biochemical
Procedure: The kinetic parameters of the γ- and β-elimination reactions were determined at 30°C in the conjugate reaction with HOHxoDH or LDH based on a decrease in NADH absorbance at 340 nm (Δε = 6,220 M^–1cm^–1). The reaction mixtures contained a 100-mM potassium phosphate buffer, pH 8.0, 0.1 mM PLP, 1 mM DTT, 0.2 mM NADH, 70 μg HOHxoDH or 10 U LDH, and variable amounts of the substrate in a total volume of 1 mL. The reaction was initiated by the addition of 10 μg of the enzyme.
The kinetic parameters were calculated according to the Michaelis–Menten equation using the EnzFitter software. In the calculations, an enzyme subunit molecular weight of 43 kDa was used. The inhibition constants were also determined using the EnzFitter software.

Ser339Ala MGL = Ser339Ala MGL (Citrobacter freundii, UniProt Q84AR1, S339A); test: coenzyme (PLP) dissociation constant by ultrafiltration, Ser339Ala MGL apoenzyme; assay type: binding; details: mutant enzyme, pH 8.0, 30°C, Scatchard coordinates
Procedure: The apoenzyme and holoenzyme were prepared in a 50-mM potassium phosphate buffer, pH 8.0, containing 1 mM DTT and 1 mM EDTA. The holoenzyme was prepared by adding a 50-fold molar excess of PLP. The mixture was incubated at 25°C for 1 h. The excess PLP was removed by dialysis. The apoenzyme was prepared by adding a 100-fold molar excess of DL-penicillamine to the sample [42]. The mixture was incubated at 25°C for 1 h. DL-Penicillamine was removed by dialysis. The procedure was repeated until the enzyme activity decreased to 1% of the initial activity. The PLP content in the sample was determined in 100 mM NaOH using the molar extinction coefficient of PLP at 390 nm (ε = 6,600 M^–1cm^–1 [43]).
The PLP dissociation constant was determined by ultrafiltration. Varying amounts of PLP (in a range of 5 × 10^–3 to 1.2 × 10^–1 mM) were added to the 8 × 10^–3 mM apoenzyme in a 50-mM potassium phosphate buffer, pH 8.0, containing 1 mM DTT and 1 mM EDTA. After incubation at 30°C for 30 min, free PLP was separated by centrifugation in a Centricon-30 microconcentrator (Amicon, United States) at 5,000 rpm and 4°C for 5 min. The PLP content in each sample was determined in 100 mM NaOH. The data were processed in Scatchard coordinates.

CSCC[C@H](N)C(=O)O = test: purified protein, by the assay type; details: other: Ser339Ala MGL, 30°C, pH 8.0, coupled with HOHxoDH or LDH

`C[C@H](N)C(=O)O` [L-Ala, L-alanine] was tested, and the Ki (MGL, Ser339Ala) was 1250 ± 320 µM.

In the case of `Cc1ncc(COP(=O)(O)O)c(C=O)c1O` [PLP, pyridoxal 5’-phosphate], the Kd (Ser339Ala MGL) is reported as 1.01 µM.

For “MGL, Ser339Ala (Citrobacter freundii; S339A)”, the Km (CSCC[C@H](N)C(=O)O) was 1840 ± 150 µM and the kcat (CSCC[C@H](N)C(=O)O) was 0.21 s⁻¹.
